Experimental data reported in US8492589B2, “Alkynyl phenyl derivative compounds for treating ophthalmic diseases and disorders” (Acucela Inc., priority 2007, dated 2013).
Read-outs that look alike come from different tables or passages of the source.

Target: T1, isomerase (Mus musculus, UniProt Q91ZQ5)
T1 construct: The recovery of 11-cis-retinal after bleaching can be used to estimate the activity of isomerase in vivo; from tissue; host or cells: eyes of living CD-1 and Balb/c male mice
T1 sequence (Q91ZQ5 1-533): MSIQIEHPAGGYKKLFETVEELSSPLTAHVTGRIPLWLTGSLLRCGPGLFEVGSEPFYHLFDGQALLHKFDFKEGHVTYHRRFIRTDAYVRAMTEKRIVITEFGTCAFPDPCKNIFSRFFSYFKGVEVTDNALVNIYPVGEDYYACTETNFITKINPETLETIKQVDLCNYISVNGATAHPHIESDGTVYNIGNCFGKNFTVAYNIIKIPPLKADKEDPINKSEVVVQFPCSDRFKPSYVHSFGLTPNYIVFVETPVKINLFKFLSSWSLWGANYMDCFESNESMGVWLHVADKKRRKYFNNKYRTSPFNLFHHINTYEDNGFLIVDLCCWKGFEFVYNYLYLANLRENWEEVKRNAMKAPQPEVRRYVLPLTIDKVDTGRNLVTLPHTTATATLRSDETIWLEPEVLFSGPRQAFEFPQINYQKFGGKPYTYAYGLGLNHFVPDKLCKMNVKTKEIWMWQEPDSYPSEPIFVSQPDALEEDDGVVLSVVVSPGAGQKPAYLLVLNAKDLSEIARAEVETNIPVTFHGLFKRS
Test: In vivo murine isomerase assay (recovery of 11-cis-retinal after photobleaching)
Design: species or system mice
Conditions: for inhibition in vivo at 1 mg/kg / inhibition in vivo at 5 mg/kg: read-out: % Inibition
Experimental: The capability of alkynyl phenyl-linked amine derivatives to inhibit isomerase is determined by an in vivo murine isomerase assay. Brief exposure of the eye to intense light (“photobleaching” of the visual pigment or simply “bleaching”) is known to photo-isomerize almost all 11-cis-retinal in the retina. The recovery of 11-cis-retinal after bleaching can be used to estimate the activity of isomerase in vivo. Delayed recovery, as represented by lower 11-cis-retinal oxime levels, indicates inhibition of isomerization reaction. Procedures were performed essentially as described by Golczak et al., Proc. Natl. Acad. Sci. […] See also Deigner et al., Science, 244: 968-71 (1989); […] Parish, et al., Proc. Natl. Acad. Sci. USA, 14609-13 (1998); […] Six-week old dark-adapted CD-1 (albino) male mice were orally gavaged with compound (0.03-3 mg/kg) dissolved in 100 μl corn oil containing 10% ethanol (five animals per group). […] After 2-24 hours in the dark, the mice were exposed to photobleaching of 5,000 lux of white light for 10 minutes. The mice were allowed to recover 2 hours in the dark. The animals were then sacrificed by carbon dioxide inhalation. Retinoids were extracted from the eye and the regeneration of 11-cis-retinal was assessed at various time intervals. All steps were performed in darkness with minimal redlight illumination (low light darkroom lights and […] flashlights for spot illumination as needed) (see, e.g., Maeda et al., J. Neurochem 85:944-956, 2003; Van Hooser et al., J Biol Chem 277:19173-82, 2002). After the mice were sacrificed, the eyes were immediately removed and placed in liquid nitrogen for storage. The eyes were placed in 500 μL of bis-tris propane buffer (10 mM, pH 7.3) and 20 μL of 0.8M hydroxile amine (pH-7.3). The eyes were cut up into small pieces with small iris scissors and then thoroughly homogenized at 30000 rpm with a mechanical homogenizer (Polytron PT 1300 D) in the tube until no visible tissue remained. 500 μL of methanol and 500 μL of heptane were added to each tube. The tubes were attached to a vortexer so that the contents were mixed thoroughly for 15 minutes in room temperature. […] The samples were analyzed on an Agilent 1100 HPLC system with normal phase column: SILICA (Beckman Coutlier, dp 5 μm, […]). The running method has a flow rate of 1.5 ml/min; solvent components are 15% solvent 1 (1% isopropanol in ethyl acetate), and 85% solvent 2 (100% hexanes). Loading volume for each sample is 100 μl; detection wavelength is 360 nm. The area under the curve for 11-cis retinal oxime was calculated by Agilent Chemstation software and was recorded manually. Data processing was performed using Prizm software. Positive control mice (no compound administered) were sacrificed fully dark-adapted and the eye retinoids analyzed. Light (bleached) control mice (no compound administered) were sacrificed and retinoids isolated and analyzed immediately after light treatment. […] Animals that received Compound 19 HCl were orally dosed with 0.01 and 1 mg/kg of compound in sterile water as solution, and photobleached 4 hours after dosing. Recovery and retinoid analysis were performed as described above. Dark control mice were vehicle-only treated, sacrificed fully dark adapted without light treatment, and analyzed. […] A time course study was performed to determine the isomerase inhibitory activity of Compounds 2, 18 and 19. Male Balb/c mice (4/group) received 3 mg Compound 2-HCl, Compound 18-HCl or Compound 19-HCl (in water) per kg bodyweight orally, by gavage. The animals were then “photo-bleached” (5000 Lux white light for 10 minutes) at 2, 4, 8, 16 and 24 hours after dosing, and returned to darkness to allow recovery of the 11-cis-retinal content of the eyes. Mice were sacrificed 2 hours after bleaching, eyes were enucleated, and retinoid content was analyzed by HPLC. A single dose study of the compound of Example 36 (Compound 36) was performed, at 1 mg/kg and 5 mg/kg oral dosing, 2, 4, 6, and 24 hours post bleaching. […]

inhibition in vivo at 1 mg/kg (mouse, 4 h) [%]	inhibition in vivo at 1 mg/kg (mouse, 24 h) [%]	inhibition in vivo at 5 mg/kg (mouse, 4 h) [%]	inhibition in vivo at 5 mg/kg (mouse, 24 h) [%]	ED50 (mouse, po, read-out: ED50 (dose of compound that gives 50% inhibition of 11-cis retinal (oxime) recovery), estimated, male Balb/c mice, HCl salts dosed orally in mg/kg, photobleached 4 hours after dosing) [mg/kg]	inhibition of isomerase activity in vivo (figure legend) (oral dose response, photobleached 4 hours after dosing, Balb/c mice)	Compound
0	0					NCCOc1cccc(C#CC2(O)CCCCCC2)c1 [Example 78, 1-((3-(2-aminoethoxy)phenyl)ethynyl)-cycloheptanol]
81	10					NCCC(O)c1cccc(C#CCCc2ccccc2)c1 (centres unmarked) [Example 69, 3-Amino-1-(3-(4-phenylbut-1-ynyl)phenyl)propan-1-ol]
10	9					CC(=O)NCCCc1cccc(C#CC2(O)CCCCC2)c1 [Example 60, N-(3-(3-((1-Hydroxycyclohexyl)Ethynyl)Phenyl)Propyl)Acetamide]
11	0					NCCCc1cccc(C#Cc2ccncc2)c1 [Example 63, 3-(3-(Pyridin-4-ylethynyl)phenyl)propan-1-amine]
8	3					NCCOc1cccc(C#Cc2ccccc2)c1 [Example 81, 2-(3-(Phenylethynyl)phenoxy)-ethanamine]

Continued, compound first:

Compound	inhibition in vivo at 1 mg/kg (mouse, 4 h) [%]	inhibition in vivo at 1 mg/kg (mouse, 24 h) [%]	inhibition in vivo at 5 mg/kg (mouse, 4 h) [%]	inhibition in vivo at 5 mg/kg (mouse, 24 h) [%]	ED50 (mouse, po, read-out: ED50 (dose of compound that gives 50% inhibition of 11-cis retinal (oxime) recovery), estimated, male Balb/c mice, HCl salts dosed orally in mg/kg, photobleached 4 hours after dosing) [mg/kg]	inhibition of isomerase activity in vivo (figure legend) (oral dose response, photobleached 4 hours after dosing, Balb/c mice)
NCCOc1cccc(C#CC2(O)CCCC2)c1 [Example 31, 1-((3-(2-Aminoethoxy)phenyl)ethynyl)cyclopentanol]	18	0				
CC(C)(O)C#Cc1cccc(CCCN)c1 [Example 7, 4-(3-(3-Aminopropyl)phenyl)-2-methylbut-3-yn-2-ol]			49	0		
CCCC(C#Cc1cccc(CCCN)c1)(CCC)OC [Example 4, 3-(3-(3-Methoxy-3-propylhex-1-ynyl)phenyl)propan-1-amine]	21	0	95	0		
CCCC(O)(C#Cc1cccc(OCCN)c1)CCC [Example 18, 4-((3-(2-Aminoethoxy)phenyl)ethynyl)heptan-4-ol]					1.73	concentration-dependent inhibition
CCC(O)(C#Cc1cccc(OCCN)c1)CC [Example 27, 1-(3-(2-Aminoethoxy)phenyl)-3-ethylpent-1-yn-3-ol]	7	6	65	0		
NCCC(O)c1cccc(C#CCCO)c1 (centres unmarked) [Example 51, 4-(3-(3-Amino-1-hydroxypropyl)phenyl)but-3-yn-1-ol]	0	0				
NCCC(O)c1cccc(C#CC2(O)CCCCCC2)c1 (centres unmarked) [Example 59, 1-((3-(3-Amino-1-hydroxypropyl)phenyl)ethynyl)cycloheptanol]	31	0				
NCCCc1cccc(C#CC2(O)CCCC2)c1 [Example 24, 1-((3-(3-Aminopropyl)phenyl)ethynyl)cyclopentanol]	0	0	27	0		
